From patent publication US5208344A, “Naphthalenepropionic acid derivatives as anti-inflammatory/antiallergic agents” (American Home Products Corporation, priority 1991, dated 1993)
Counter-ions that a name gives are not always drawn.

How the values were obtained:
[1] = tested on: ovalbumin-induced bronchoconstriction; assay: inhibition of antigen (ovalbumin)-induced bronchoconstriction in anesthetized guinea pigs; format: in vivo; details: orally administered 4 hours before induction, guinea pig, 240 min
Experimental: The compounds of the invention are tested to measure their in vivo ability to inhibit the bronchoconstriction induced in anesthetized guinea pigs by exogenously administered antigen.
Male Hartley guinea pigs (400-700 gm) are sensitized three weeks prior to antigen (ovalbumin-OA) challenge as follows: each guinea pig is given two intramuscular injections--0.35 ml of Grade V OA, 50 mg/ml, into each hindlimb.
Guinea pigs, fasted overnight but allowed water adlibitum, are anesthetized with 1.2 g/kg of urethane (intraperitoneal). Supplemental does of […] of urethane are administered intraperitoneally as needed. One carotid artery and one jugular vein are cannulated to allow for the monitoring of blood pressure and the administration of drugs, respectively. A duodenal cannula is inserted for intraduodenal dosing studies. The trachea of each animal is cannulated and connected to a Harvard respirator. […] Respiratory overflow pressure is measured from a side arm off the tracheal cannula which is connected via a Gould or Beckman pressure transducer to a suitable strip chart recorder. […]
Test compounds are administered intravenously, perorally, or intraduodenally at appropriate times prior to OA challenge. […] Control experiments are used to determine the effects of solvents on the measured parameters, and test data is corrected for any significant solvent effects.
Bronchoconstriction is assessed as increases in respiratory overflow pressure (cm H2 O). Changes in blood pressure (mm Hg) are also recorded.
Test compound-induced changes in the respiratory overflow pressure are assessed as percent changes from control experiments. […] The net change in overflow pressure is measured 5 minutes after antigen challenge and is calculated as follows. […] The percent change value for the drug treated group versus the control group is calculated as follows: […]

[2] = tested on: cyclooxygenase; assay: inhibition of synthesis of cyclooxygenase products TxB2 and PGE2 (rat polymorphonuclear leukocytes); format: cell-based; details: 10 μM, rat PMN, negative = potentiation of PGE2 synthesis
How it was run: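 Glycogen-elicited peritoneal PMN from female Wistar rats, 2×10^7 cells/ml in HBSS with Ca^++, Mg^++ and 10 mM L-cysteine, preincubated with compound 10 min at 37° C. Stimulated 10 min with A23187 (10 μM) plus 0.5 μM [14C] arachidonic acid; TxB2 and PGE2 quantified by TLC, autoradiography and scintillation counting.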

[3] = tested on: acute gastroirritation induced by naproxen; assay: cytoprotective activity against NSAID (naproxen)-induced acute gastroirritation in rats; format: in vivo, rat; details: drug 100 mg/kg peroral 1 hour before naproxen 25 mg/kg
Excerpt: The assay of Example 44 is also used to measure the cytoprotective activity of the compounds against acute gastroirritation induced by a nonsteroidal anti-inflammatory drug (NSAID).

[4] = target: T1, 5-lipoxygenase (Rattus norvegicus, UniProt P12527); assay: inhibition of 5-HETE synthesis by rat glycogen elicited polymorphonuclear leukocytes; format: cell-based; details: 10 μM, rat PMN, negative = potentiation of 5-HETE synthesis
T1 construct: Peritoneal PMN are obtained from female Wistar rats (150-250 g); endogenous in cells; host or cells: rat glycogen-elicited peritoneal polymorphonuclear leukocytes, intact
T1 sequence (P12527 1-673): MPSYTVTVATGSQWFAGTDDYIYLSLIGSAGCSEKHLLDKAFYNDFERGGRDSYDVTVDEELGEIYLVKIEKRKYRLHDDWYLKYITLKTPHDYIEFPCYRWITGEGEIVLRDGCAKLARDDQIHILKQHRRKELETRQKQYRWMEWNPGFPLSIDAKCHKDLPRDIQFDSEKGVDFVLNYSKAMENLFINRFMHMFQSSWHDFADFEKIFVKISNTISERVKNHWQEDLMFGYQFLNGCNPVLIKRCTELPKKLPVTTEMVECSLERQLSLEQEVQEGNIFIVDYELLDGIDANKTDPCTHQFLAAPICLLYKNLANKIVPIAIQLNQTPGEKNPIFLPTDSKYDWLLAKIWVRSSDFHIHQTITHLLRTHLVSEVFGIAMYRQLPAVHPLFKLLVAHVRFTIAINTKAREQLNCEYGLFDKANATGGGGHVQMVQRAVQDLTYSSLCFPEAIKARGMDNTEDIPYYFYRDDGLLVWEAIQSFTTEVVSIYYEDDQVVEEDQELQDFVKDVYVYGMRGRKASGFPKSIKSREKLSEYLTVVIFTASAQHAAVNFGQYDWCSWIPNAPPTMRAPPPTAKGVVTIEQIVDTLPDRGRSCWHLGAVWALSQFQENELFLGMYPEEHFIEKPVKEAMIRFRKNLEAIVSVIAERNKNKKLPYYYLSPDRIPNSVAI
How it was run: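 Peritoneal PMN from female Wistar rats given i.p. glycogen 24 h earlier were preincubated with compound for 10 min at 37° C (2×10^7 cells/ml, 10 mM L-cysteine). They were then stimulated 10 min with 10 μM A23187 plus 0.5 μM [14C]arachidonic acid. 5-HETE was separated by TLC and quantified by scintillation.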

Structure (SMILES)	ED50 (ovalbumin-induced bronchoconstriction) [1]	% Inhibition of CO (as PGE2) [2]	% of Rats With Lesions [3]	Comments (protection) [3]	inhibition at 10 µM ([4]; read-out: % Inhibition of 5-LO (as 5-HETE))	ED50 (ovalbumin-induced bronchoconstriction) ([1]; sodium salt)	% Inhibition of CO (as PGE2) ([2]; sodium salt)	% Inhibition of 5-LO (as 5-HETE) ([4]; sodium salt)
C[C@H](C(=O)O)c1ccc2cc(OCc3ccc4ccccc4n3)ccc2c1 [Example 7, S-(α)-α-Methyl-6-(2-quinolinylmethoxy)-2-naphthaleneacetic acid]	100 mg/kg	-17%	87.5%	no protection	100%	–	–	–
C[C@H](C(=O)O)c1ccc2cc(OCc3ccc4ccccc4n3)ccc2c1 [Example 16, S-(+)-α-Methyl-6-(2-quinolinylmethoxy)-2-naphthaleneacetic acid, sodium salt]	–	–	–	–	–	15 mg/kg	-13%	100%
